These are literature values, as cited in patent US20190375786A1, “STABLE PEPTIDES AND METHODS OF USE THEREOF” (Fred Hutchinson Cancer Research Center, priority 2016, published 2019).

Positions of bridges follow the written chain, without caps; N, C: chain ends. Residues, ends and D or L forms follow the SMILES beside them.

The conditions of the data set: oral administration; cited from earlier work.

Take `C[C@@H]1NC(=O)[C@@H]2CCCN2C(=O)[C@H](CC(N)=O)NC(=O)[C@@H]2CSSC[C@H](N)C(=O)N[C@H]3CSSC[C@H](NC1=O)C(=O)N[C@@H]([C@@H](C)O)C(=O)NCC(=O)N[C@H](C(=O)N[C@@H](Cc1ccc(O)cc1)C(=O)O)CSSC[C@H](NC(=O)[C@H](Cc1ccc(O)cc1)NC(=O)[C@H](CCC(=O)O)NC3=O)C(=O)N2` [linaclotide] (H-CCEYCCNPACTGCY-OH; disulfide 1-6, 2-10, 5-13): the “systemic absorption into the plasma” value is recorded as “not significantly systemically absorbed”.
